The supplement of paper PMC7600603

Columns and labels:
[1] = test system: DLD1 NRF2-WT; experiment: drug sensitivity score (DSS) cytotoxicity (DSS score); higher = more toxic; extreme values may be limits of the assay; conditions: 72 h; CellTox Green cytotoxicity
Outline: (§1)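 After growth in DMEM with 10% FBS, NRF2 wild-type and CRISPR-edited isogenic DLD1 cells were seeded in 384-well plates and given library compounds at 5 concentrations across a 10,000-fold range. Fluorescence from CellTox Green was taken on a Pherastar FS reader after 72 h and normalised against vehicle wells and 100-μM positive-control wells. From logistic dose-response fits of cytotoxicity came the TC50 and the drug sensitivity score, a normalised area under the curve.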

[2] = test system: DLD1 NRF2-GOF; experiment: as above; conditions: 72 h; CellTox Green cytotoxicity
Outline: as §1

[3] = test system: DLD1 NRF2-WT; experiment: drug sensitivity score (DSS) viability (DSS score); higher = more sensitive; extreme values may be limits of the assay; conditions: 72 h; CellTiter-Glo viability
Outline: (§2)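 Isogenic DLD1 colorectal cancer cells, either NRF2 wild-type or CRISPR gain-of-function, were grown in DMEM with 10% FBS. They were exposed in 384-well plates to library compounds at 5 concentrations spanning a 10,000-fold range. After 72 h, viability was read by CellTiter-Glo on a Pherastar FS reader and normalised to vehicle wells and 100-μM positive-control wells. EC50 and drug sensitivity score (a normalised area under the curve) came from four-parameter logistic dose-response fits.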

[4] = test system: DLD1 NRF2-GOF; experiment: as above; conditions: 72 h; CellTiter-Glo viability
Outline: as §2

[5] = test system: DLD1 NRF2-WT; experiment: TC50 cytotoxicity; higher = less toxic; conditions: 72 h; CellTox Green cytotoxicity
Outline: as §1

[6] = test system: DLD1 NRF2-GOF; experiment: TC50 cytotoxicity; higher = less toxic; conditions: 72 h; CellTox Green cytotoxicity
Outline: as §1

[7] = test system: DLD1 NRF2-WT; conditions: 72 h; CellTiter-Glo viability
Outline: as §2

EC50 viability [7]	Compound	drug sensitivity score [1]	drug sensitivity score [2]	drug sensitivity score [3]	drug sensitivity score [4]	TC50 cytotoxicity [5]	TC50 cytotoxicity [6]
	CNC(=O)c1cc(COc2nnc(Nc3ccc(Cl)cc3)c3ccoc23)ccn1 [Telatinib]	0	0	6.9	2.6	> 10 µM	> 10 µM
0.0033 µM	C[C@@H](Oc1cc(-n2cnc3ccc(CN4CCN(C)CC4)cc32)sc1C(N)=O)c1ccccc1C(F)(F)F	2.4	8	33.6		> 10 µM	> 10 µM
> 10 µM	C[C@H]1C[C@@H](n2c(Nc3ccc(OC(F)(F)F)cc3)nc3cc(CCC(=O)O)ccc32)CC(C)(C)C1	0	0	0.3		> 10 µM	> 10 µM
> 25 µM	C[C@@H]1CN(CC(=O)Nc2ccc3c(c2)Cc2cccc(-c4cc(=O)cc(N5CCOCC5)o4)c2S3)C[C@H](C)O1	0	0	0		> 25 µM	> 25 µM
0.149 µM	COc1c(C)cnc(Cn2cnc3c(Cl)nc(N)nc32)c1C [BIIB021]	0	0	20.6		> 10 µM	> 10 µM
	C=CC(=O)Nc1cccc(Oc2nc(Nc3ccc(N4CCN(C)CC4)cc3)nc3ccsc23)c1 [Olmutinib]	0	0	2.6	2.8	> 1 µM	> 1 µM
3.11 µM	CC(C)(C)c1cc(NC(=O)Nc2ccc(Oc3ccnc4[nH]c(=O)cnc34)cc2F)n(-c2ccccc2)n1	1.1	0	9.8		> 25 µM	> 25 µM
4.36 µM	CC/C(=C(\c1ccccc1)c1ccc(OCCN(C)C)cc1)c1ccccc1 [Tamoxifen]	0	0	2		> 10 µM	> 10 µM
> 1 µM	CC[C@H](NC(=O)[C@H](C)NC)C(=O)N1C[C@@H](O)C[C@H]1Cc1c(-c2[nH]c3cc(F)ccc3c2C[C@@H]2C[C@H](O)CN2C(=O)[C@H](CC)NC(=O)[C@H](C)NC)[nH]c2cc(F)ccc12 [Birinapant]	0	0	0.1		> 1 µM	> 1 µM
1.86 µM	OC[C@H]1O[C@@H](n2cnc3c2N=CNC[C@H]3O)C[C@@H]1O [Pentostatin]			2.5	1.6		
0.037 µM	CC(=O)Nc1cccc(-n2c(=O)n(C3CC3)c(=O)c3c(Nc4ccc(I)cc4F)n(C)c(=O)c(C)c32)c1 [Trametinib]	0	0	3.1		> 0.25 µM	> 0.25 µM
	CONC(=O)c1ccccc1Nc1cc(Nc2cc(C)nn2C(C)C)ncc1Cl	0	0		1.6	> 1 µM	> 1 µM
3.43 µM	O=C(Nc1cc(Oc2cc(F)c(NC(=O)C3(C(=O)Nc4ccc(F)cc4)CC3)cc2F)ccn1)C1CC1 [Altiratinib]	0.6	0.2	5.1		> 10 µM	> 10 µM
0.0334 µM	COc1ccc(-c2nc(N3CCOCC3)c3sc(CN(C)c4ncc(C(=O)NO)cn4)cc3n2)cn1 [CUDC-907]	14.6	6.9	29.8		0.105 µM	0.509 µM
0.119 µM	CO[C@H](C(=O)[C@@H](O)[C@@H](C)O)[C@@H]1Cc2cc3cc(O[C@H]4C[C@@H](O[C@H]5C[C@@H](O)[C@H](O)[C@@H](C)O5)[C@@H](O)[C@@H](C)O4)c(C)c(O)c3c(O)c2C(=O)[C@H]1O[C@H]1C[C@@H](O[C@H]2C[C@@H](O[C@H]3C[C@](C)(O)[C@H](O)[C@@H](C)O3)[C@H](O)[C@@H](C)O2)[C@H](O)[C@@H](C)O1 [Plicamycin]	1.7	0	21.8		> 10 µM	> 10 µM
3.47 µM	CN1CCC(CNc2ccc3ncc(-c4cccc(OC(F)(F)F)c4)n3n2)CC1 [SGI-1776]	4.5	3.1	5		2.68 µM	3.14 µM
3.39 µM	CNC(=O)c1ccccc1Sc1ccc2c(/C=C/c3ccccn3)n[nH]c2c1 [Axitinib]	0.3	0	2.4		> 10 µM	> 10 µM
> 10 µM	Nc1cc(F)ccc1NC(=O)c1ccc(CNC(=O)/C=C/c2cccnc2)cc1 [Chidamide]	0	0	0.6		> 10 µM	> 10 µM
> 5 µM	CCC(C)n1ncn(-c2ccc(N3CCN(c4ccc(OCC5COC(Cn6cncn6)(c6ccc(Cl)cc6Cl)O5)cc4)CC3)cc2)c1=O (centres undefined) [Itraconazole]	0	0	0.4		> 5 µM	> 5 µM
0.688 µM	O=C(Nc1ccc2[nH]nc(-c3ccncc3)c2c1)[C@@H]1CCN(CC(=O)N2CCN(c3ccc(-c4ncccn4)cc3)CC2)C1	0	0	6.6		> 10 µM	> 10 µM
	CNCc1ccc(-c2[nH]c3cc(F)cc4c3c2CCNC4=O)cc1 [Rucaparib]	0	0	0.8	2.7	> 10 µM	> 10 µM
0.808 µM	Cc1cccc(CC(=O)N2CCc3c2ccc(-c2cn(C)c4ncnc(N)c24)c3F)n1	0	0	2.5		> 2.5 µM	> 2.5 µM
> 10 µM	CC(C)NC[C@@H](C(=O)N1CCN(c2ncnc3c2[C@H](C)C[C@H]3O)CC1)c1ccc(Cl)cc1 [Ipatasertib]	0	0	1.3		> 10 µM	> 10 µM
